Read-outs that look alike come from different tables or passages of the source.
System: PD-1/PD-L1 interaction
Assay: Cell based PD-1/PD-L1 NFAT reporter assay
Design: species or system human
Conditions: Homo sapiens, PD-1/NFAT-Reporter-Jurkat cells co-cultured with TCR activator/PD-L1-CHO cells, 6 hour incubation, luciferase, calibrated to Atezolizumab 10 nM, read-out: Absolute EC50
Method: Cell Based PD-1/PD-L1 NFAT Reporter Assay
Compounds of the present patent were tested in a cell based PD-1/PD-L1 NFAT reporter assay.
The cell-based luciferase reporter assay is used for monitoring the PD-1/PD-L1 inhibitor by characterizing the biological activity of PD-1: PD-L1 interactions in cellular context. PD-1/NFAT-Reporter-Jurkat cells stably over-expressing human PD-1 with NFAT reporter are used as effector cells. TCR activator/PD-L1—CHO cells over-expressing PD-L1 and an engineered T cell receptor (TCR) activator are used as target cells. When these two cells are co-cultivated, TCR complexes on effector cells are activated by TCR activator on target cells, resulting in expression of the NFAT luciferase reporter. However, PD1 and PD-L1 (or PD-L2) ligation prevents TCR activation and suppresses the NFAT-responsive luciferase activity. This inhibition can be specifically reversed by anti-PD1 or anti-PD-L1 inhibitors. PD1/PD-L1 inhibitors block PD1:PD-L1 interaction and promote TCR activation, resulting in reactivation of the NFAT responsive luciferase reporter.
PD-1/NFAT—Reporter—Jurkat cell (Cat: 60535) and TCR activator/PD-L1—CHO cell (Cat: 60536) were purchased from BPS Bioscience. Anti-human PD-L1 antibody (Atezolizumab, Cat: A2004) was purchased from Selleck; luciferase reporter gene expression detection kit (ONE-Glo™ Luciferase Assay System, Cat: E6120) was purchased from Promega; multifunction plate reader (SpectraMax i3x) was purchased from Molecular Devices.
PD-1/NFAT—Reporter—Jurkat cells and TCR activator/PD-L1—CHO cells were cultured in recommended media respectively.
Harvest TCR activator/PD-L1-CHO cells from culture and seed cells at a density of 35,000 cells per well into 96-well microplate in 100 µl of growth medium. Incubate cells at 37° C. in a CO2 incubator overnight. Next day, discard the culture media, add diluted compound in assay medium for 30 min. Anti-PD-L1 antibody (Atezolizumab, final concentration 10 nM) and 0.1% DMSO were the positive and negative control, respectively. Harvest the PD-1/NFAT-reporter-Jurkat cells by centrifugation and add to the wells. After 6 hour incubation, perform luciferase assay using the ONE-Glo™ Luciferase Assay System, following the manufacturer's assay protocol.
Anti-PD-L1 antibody (Atezolizumnab, 10 nM) was used as positive control to calibrate the inhibition rate using the following equation: % inhibition=(Sample luminescence/Average vehicle group luminescence−1)/(Average PD-L1 group luminescence/Average vehicle group luminescence−1)×100%.

Row | Compound | EC50 (6 h) | EC50
1 | COc1cc(OCc2cccc(-c3cccc4c3cnn4Cc3cc(OCc4cncc(C#N)c4)c(CN4CCC(C)(C(=O)O)C4)cc3Cl)c2C)c(Cl)cc1CN1CCC(C)(C(=O)O)C1 (stereo not drawn) [Compound 70, 1-(4-((3-(1-(4-((3-carboxy-3-methylpyrrolidin-1-yl)methyl)-2-chloro-5-((5-cyanopyridin-3-yl)methoxy)benzyl)-1H-indazol-4-yl)-2-methylbenzyl)oxy)-5-chloro-2-methoxybenzyl)-3-methylpyrrolidine-3-carboxylic acid] | 5850 nM | 
2 | COc1cc(OCc2cccc(-c3cccc4c3cnn4Cc3cc(OCc4cncc(C#N)c4)c(CN)cc3Cl)c2C)c(Cl)cc1CN [Compound 72] | > 1110 nM | 
3 | COc1cc(OCc2cccc(-c3cccc4c3cnn4Cc3cc(OCc4cncc(C#N)c4)c(CN)cc3Cl)c2C)c(Cl)cc1CN[C@@H](CO)C(=O)O [Compound 73] | 448 nM | 
4 | COc1cc(OCc2cccc(-c3cccc4c3cnn4Cc3cc(OCc4cncc(C#N)c4)c(CN[C@@H](CO)C(=O)O)cc3Cl)c2C)c(Cl)cc1CN [Compound 74] | 2700 nM | 
5 | Cc1c(COc2cc(OCc3cncc(C#N)c3)c(CN)cc2Cl)cccc1-c1cccc2c1cnn2Cc1cc(OCc2cncc(C#N)c2)c(CN)cc1Cl [Compound 75] | 2830 nM | 
6 | COc1cc(OCc2cccc(-c3cccc4c3c(C)nn4Cc3cc(OCc4cncc(C#N)c4)c(CN[C@@H](CO)C(=O)O)cc3Cl)c2C)c(Cl)cc1CN[C@@H](CO)C(=O)O [Compound 78] | 1600 nM | 
7 | N#Cc1cncc(COc2cc(OCc3cccc(-c4cccc5c4cnn5CCCCN4CC[C@@H](O)C4)c3Br)c(Cl)cc2CN2CC[C@H](O)C2)c1 [Compound 79] | > 370 nM | 
8 | CC1(C(=O)O)CCN(Cc2cc(Cl)c(OCc3cccc(-c4cccc5c4cnn5CCCCN4CC[C@@H](O)C4)c3Br)cc2OCc2cncc(C#N)c2)C1 (stereo partly drawn) [Compound 84] | 1750 nM | 
9 | N#Cc1cncc(COc2cc(OCc3cccc(-c4cccc5c4cnn5CCCCN4CC[C@@H](O)C4)c3Br)c(Cl)cc2CN2CCCC2)c1 [Compound 85] | > 370 nM | 
10 | Cc1c(OCCCN2CC[C@@H](O)C2)cccc1-c1ccnc2c1cnn2Cc1cc(OCc2cncc(C#N)c2)c(CN[C@@H](CO)C(=O)O)cc1Cl [Compound 88, (5-chloro-2-((5-cyanopyridin-3-yl)methoxy)-4-((4-(3-(3-((R)-3-hydroxypyrrolidin-1-yl)propoxy)-2-methylphenyl)-1H-pyrazolo[3,4-b]pyridin-1-yl)methyl)benzyl)-L-serine] | 1030 nM | 
11 | Cc1c(OCCCN2CC[C@@H](O)C2)cccc1-c1cncc2c1cnn2Cc1cc(OCc2cncc(C#N)c2)c(CN[C@@H](CO)C(=O)O)cc1Cl [Compound 89, (5-chloro-2-((5-cyanopyridin-3-yl)methoxy)-4-((4-(3-(3-((R)-3-hydroxypyrrolidin-1-yl)propoxy)-2-methylphenyl)-1H-pyrazolo[3,4-c]pyridin-1-yl)methyl)benzyl)-L-serine] | 5450 nM | 
12 | N#Cc1cncc(COc2cc(Cn3ncc4c(-c5cccc(OCc6ccc(CN7CC[C@@H](O)C7)cc6)c5Cl)cccc43)c(Cl)cc2CN[C@@H](CO)C(=O)O)c1 [Compound 90, (5-chloro-4-((4-(2-chloro-3-((4-(((R)-3-hydroxypyrrolidin-1-yl)methyl)benzyl)oxy)phenyl)-1H-indazol-1-yl)methyl)-2-((5-cyanopyridin-3-yl)methoxy)benzyl)-L-serine] |  | 1060 nM
13 | COc1cc(Cn2ccc3c(-c4cccc(-c5ccc(CNC[C@@H]6CCC(=O)N6)cc5)c4Cl)cccc32)c(Cl)cc1CN[C@@H](CO)C(=O)O [Compound 91, (5-chloro-4-((4-(2-chloro-4′-(((((S)-5-oxopyrrolidin-2-yl)methyl)amino)methyl)-[1,1′-biphenyl]-3-yl)-1H-indol-1-yl)methyl)-2-methoxybenzyl)-L-serine] | 518 nM | 
14 | COc1cc(Cn2nnc3c(-c4cccc(-c5ccc(CNC[C@@H]6CCC(=O)N6)cc5)c4Cl)cccc32)c(Cl)cc1CN[C@@H](CO)C(=O)O [Compound 92, (5-chloro-4-((4-(2-chloro-4′-(((((S)-5-oxopyrrolidin-2-yl)methyl)amino)methyl)-[1,1′-biphenyl]-3-yl)-1H-benzo[d][1,2,3]triazol-1-yl)methyl)-2-methoxybenzyl)-L-serine] | 416 nM | 
15 | COc1cc(Cn2cnc3c(-c4cccc(-c5ccc(CNC[C@@H]6CCC(=O)N6)cc5)c4Cl)cccc32)c(Cl)cc1CN[C@@H](CO)C(=O)O [Compound 93, (5-chloro-4-((4-(2-chloro-4′-(((((S)-5-oxopyrrolidin-2-yl)methyl)amino)methyl)-[1,1′-biphenyl]-3-yl)-1H-benzo[d]imidazol-1-yl)methyl)-2-methoxybenzyl)-L-serine] | 2130 nM | 
16 | CN1CCC2(CC1)CCN(Cc1cccc(-c3cccc4c3cnn4Cc3cc(OCc4cncc(C#N)c4)c(CN[C@@H](CO)C(=O)O)cc3Cl)c1Cl)CC2 [Compound 94, (5-chloro-4-((4-(2-chloro-3-((9-methyl-3,9-diazaspiro[5.5]undecan-3-yl)methyl)phenyl)-1H-indazol-1-yl)methyl)-2-((5-cyanopyridin-3-yl)methoxy)benzyl)-L-serine] | > 10000 nM | 
17 | CN1CCC2(CC1)CCN(C(=O)c1cccc(-c3cccc4c3cnn4Cc3cc(OCc4cncc(C#N)c4)c(CN[C@@H](CO)C(=O)O)cc3Cl)c1Cl)CC2 [Compound 95, (5-chloro-4-((4-(2-chloro-3-(9-methyl-3,9-diazaspiro[5.5]undecane-3-carbonyl)phenyl)-1H-indazol-1-yl)methyl)-2-((5-cyanopyridin-3-yl)methoxy)benzyl)-L-serine] | > 10000 nM | 
18 | CN1CCC2(CC1)CCN(c1cccc(-c3cccc4c3cnn4Cc3cc(OCc4cncc(C#N)c4)c(CN[C@@H](CO)C(=O)O)cc3Cl)c1Cl)CC2 [Compound 96, (5-chloro-4-((4-(2-chloro-3-(9-methyl-3,9-diazaspiro[5.5]undecan-3-yl)phenyl)-1H-indazol-1-yl)methyl)-2-((5-cyanopyridin-3-yl)methoxy)benzyl)-L-serine] |  | 2450 nM

Further molecules by falling EC50 (6 h), results first:

Row | EC50 (6 h) | Compound | EC50
19 | 339 nM | N#Cc1cncc(COc2cc(OCc3cccc(-c4cccc5c4cnn5CCCCN4CC[C@@H](O)C4)c3Br)c(Cl)cc2CN2CC[C@@H](O)C2)c1 [Compound 82] | 
20 | 318 nM | N#Cc1cncc(COc2cc(OCc3cccc(-c4cccc5c4cnn5CCCCN4CC[C@@H](O)C4)c3Br)c(Cl)cc2CNCCO)c1 [Compound 80] | 
21 | 232 nM | N#Cc1cncc(COc2cc(OCc3cccc(-c4cccc5c4cnn5CCCCN4CC[C@@H](O)C4)c3Br)c(Cl)cc2CNC[C@@H]2CCC(=O)N2)c1 [Compound 83] | 
22 | 221 nM | C[C@H](CO)NCc1cc(Cl)c(OCc2cccc(-c3cccc4c3cnn4CCCCN3CC[C@@H](O)C3)c2Br)cc1OCc1cncc(C#N)c1 [Compound 81] | 
23 | 214 nM | N#Cc1cncc(COc2cc(OCc3cccc(-c4cccc5c4cnn5CCCCNC[C@@H]4CCC(=O)N4)c3Br)c(Cl)cc2CN[C@@H](CO)C(=O)O)c1 [Compound 86] | 
24 | 134 nM | Cc1c(COc2cc(OCc3cncc(C#N)c3)c(CNCCO)cc2Cl)cccc1-c1cccc2c1cnn2Cc1cc(OCc2cncc(C#N)c2)c(CNCCO)cc1Cl [Compound 71] | 
25 | 98 nM | N#Cc1cncc(COc2cc(OCc3cccc(-c4cccc5c4cnn5CCCNC[C@@H]4CCC(=O)N4)c3Br)c(Cl)cc2CN[C@@H](CO)C(=O)O)c1 [Compound 87, (4-((2-bromo-3-(1-(3-((((S)-5-oxopyrrolidin-2-yl)methyl)amino)propyl)-1H-indazol-4-yl)benzyl)oxy)-5-chloro-2-((5-cyanopyridin-3-yl)methoxy)benzyl)-L-serine] | 
26 | 34 nM | COc1nc(-c2cccc(-c3cccc4c3cnn4Cc3cc(OCc4cncc(C#N)c4)c(CN[C@@H](CO)C(=O)O)cc3Cl)c2Cl)ccc1CNC[C@@H]1CCC(=O)N1 [Compound 76] | 
27 | 28 nM | N#Cc1cncc(COc2cc(Cn3ncc4c(-c5cccc(-c6ccc(CNC[C@@H]7CCC(=O)N7)cc6)c5Cl)cccc43)c(Cl)cc2CN[C@@H](CO)C(=O)O)c1 [Compound 77] | 
